Results published in ChEMBL document CHEMBL1201862, “PubChem BioAssay data set” (2004).
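All cell lines were grown in 96-well plates and treated with compound for 48 hours. GI50 is the concentration that inhibits growth by half.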 The source made the active and inactive calls. Rule as the data show it: active = GI50 up to about 1.1 µM and inactive = higher.

Tests used:
Assay in all cases: NCI-60 cell line screen, 48 h
[1] = system: 786-0
[2] = system: A498
[3] = system: A549
[4] = system: ACHN
[5] = system: BT-549
[6] = system: CAKI-1
[7] = system: CCRF-CEM
[8] = system: COLO 205
[9] = system: DU-145
[10] = system: EKVX
[11] = system: HCC 2998
[12] = system: HCT-116
[13] = system: HCT-15
[14] = system: HL-60
[15] = system: HOP-62
[16] = system: HT-29
[17] = system: Hs-578T
[18] = system: IGROV-1
[19] = system: K562
[20] = system: KM12
[21] = system: LOX IMVI
[22] = system: M14
[23] = system: MCF7
[24] = system: MDA-MB-231
[25] = system: MDA-MB-435
[26] = system: MOLT-4
[27] = system: Malme-3M
[28] = system: NCI-H226
[29] = system: NCI-H23
[30] = system: NCI-H460
[31] = system: NCI-H522
[32] = system: NCI/ADR-RES
[33] = system: OVCAR-3
[34] = system: OVCAR-4
[35] = system: OVCAR-5
[36] = system: OVCAR-8
[37] = system: PC-3
[38] = system: RPMI-8226
[39] = system: RXF 393
[40] = system: SF-268
[41] = system: SF-295
[42] = system: SF-539
[43] = system: SK-MEL-28
[44] = system: SK-MEL-2
[45] = system: SK-MEL-5
[46] = system: SK-OV-3
[47] = system: SN12C
[48] = system: SNB-19
[49] = system: SNB-75
[50] = system: SR
[51] = system: SW-620
[52] = system: T47D
[53] = system: TK-10
[54] = system: U-251
[55] = system: UACC-257
[56] = system: UACC-62
[57] = system: UO-31
[58] = system: HOP-92

Measured: GI50

COc1ccc(/C=N/Nc2nc(=S)[nH]c3[nH]ncc23)cc1
> 100 µM: [13]
inactive: [1] 43.4 µM | [2] 40.9 µM | [3] 54.3 µM | [4] 43.3 µM | [5] > 100 µM | [6] 32.7 µM | [7] 24.7 µM | [8] 18.3 µM | [9] 36.5 µM | [10] 59.4 µM | [11] 35 µM | [12] > 100 µM | [14] > 100 µM | [15] 29.9 µM | [16] 48.5 µM | [17] > 100 µM | [18] 25 µM | [19] > 100 µM | [20] 49.9 µM | [21] 33.8 µM | [22] 41.8 µM | [23] 43.5 µM | [24] 34.6 µM | [25] 30.6 µM | [26] > 100 µM | [27] 38.2 µM | [28] > 100 µM | [29] 27.5 µM | [30] 79.8 µM | [31] 26.2 µM | [32] > 100 µM | [33] 60.7 µM | [34] 49 µM | [35] 45.5 µM | [36] > 100 µM | [37] 52.2 µM | [38] 2.5 µM | [39] > 100 µM | [40] 93.8 µM | [41] 40.6 µM | [42] > 100 µM | [43] 35.2 µM | [44] 45.7 µM | [45] 30 µM | [46] > 100 µM | [47] > 100 µM | [48] 22.2 µM | [49] > 100 µM | [50] > 100 µM | [51] > 100 µM | [52] 14.5 µM | [53] 33.1 µM | [54] 19.1 µM | [55] 55.6 µM | [56] 31 µM | [57] > 100 µM

C=C1CC[C@@H]2C13[C@@H]1[C@H](CC(=O)[C@@]23C)C1(C)C (some centres undefined)
inactive: [1] 55.1 µM | [2] > 100 µM | [3] 26.4 µM | [4] > 100 µM | [5] > 100 µM | [6] > 100 µM | [8] 84.5 µM | [9] > 100 µM | [12] > 100 µM | [14] > 100 µM | [15] 24 µM | [58] > 100 µM | [16] > 100 µM | [17] > 100 µM | [18] 55.7 µM | [19] 81.5 µM | [20] > 100 µM | [21] > 100 µM | [22] > 100 µM | [23] > 100 µM | [25] > 100 µM | [26] > 100 µM | [27] > 100 µM | [28] > 100 µM | [29] > 100 µM | [30] > 100 µM | [31] > 100 µM | [32] > 100 µM | [33] 21.6 µM | [34] 15.5 µM | [35] > 100 µM | [36] 35.9 µM | [37] > 100 µM | [38] > 100 µM | [39] 43.6 µM | [40] > 100 µM | [41] 82 µM | [42] 67.1 µM | [43] > 100 µM | [44] > 100 µM | [45] > 100 µM | [46] > 100 µM | [47] > 100 µM | [50] 11.7 µM | [51] 51.4 µM | [52] 55.8 µM | [53] 33.7 µM | [54] > 100 µM | [55] > 100 µM | [56] > 100 µM | [57] 16.4 µM
> 100 µM: [13]
